Tested on: panelist
Assay: Odor threshold concentration (Log T / Log ODT) by gas chromatograph with sniff port
Parameters: species or system human
Method: “High impact perfume raw materials” should be understood as perfume raw materials having a Log T<−4. The odor threshold concentration of a chemical compound is determined in part by its shape, polarity, partial charges and molecular mass. For convenience, the threshold concentration is presented as the common logarithm of the threshold concentration, i.e., Log [Threshold] (“Log T”).
The odor threshold concentration of a perfuming compound is determined by using a gas chromatograph (“GC”). Specifically, the gas chromatograph is calibrated to determine the exact volume of the perfume oil ingredient injected by the syringe, the precise split ratio, and the hydrocarbon response using a hydrocarbon standard of known concentration and chain-length distribution. The air flow rate is accurately measured and, assuming the duration of a human inhalation to last 12 seconds, the sampled volume is calculated. […] To determine the threshold concentration, solutions are delivered to the sniff port at the back-calculated concentration. A panelist sniffs the GC effluent and identifies the retention time when odor is noticed. The average across all panelists determines the odor threshold concentration of the perfuming compound. The determination of odor threshold is described in more detail in C.

[1] = ingredient of Perfume oil B (Table 3)
[2] = ingredient of Perfume oil A (Table 1)
[3] = ingredient of Perfume oil C (Table 5)
[4] = ingredient of Perfume oil D (Table 7)

Compound | Log ODT [1] | Log ODT [2] | Log ODT [3] | Log ODT [4]
CC(C)c1cccc(C(C)CC=O)c1 (racemic) [(+−)-3-(3-ISOPROPYL-1-PHENYL)BUTANAL] | <−4 |  |  | 
(2RS,4SR)-4-METHYL-2-(2-METHYL-1-PROPEN-1-YL)TETRAHYDRO-2H-PYRAN (A) + (2RS,4RS)-4-METHYL-2-(2-METHYL-1-PROPEN-1-YL)TETRAHYDRO-2H-PYRAN (B) | >−4 | >−4 |  | 
3-(4-ETHYLPHENYL)-2,2-DIMETHYLPROPANAL (A) + 3-(2-ETHYLPHENYL)-2,2-DIMETHYLPROPANAL (B) | >−4 |  |  | 
(1 RS,2RS)-2,4-DIMETHYL-3-CYCLOHEXENE-1-CARBALDEHYDE (A) + (1 RS,2SR)-2,4-DIMETHYL-3-CYCLOHEXENE-1-CARBALDEHYDE (B) |  | >−4 | >−4 | 
1-OXA-12-CYCLOHEXADECEN-2-ONE (A) + 1-OXA-13-CYCLOHEXADECEN-2-ONE (B) |  |  | >−4 | 
(2Z)-1,1-DIETHOXY-3,7-DIMETHYL-2,6-OCTADIENE (A) + (2E)-1,1-DIETHOXY-3,7-DIMETHYL-2,6-OCTADIENE (B) | >−4 |  |  | >−4
(+−)-4-METHYLENE-2-PHENYLTETRAHYDRO-2H-PYRAN (A) + (+−)-4-METHYL-6-PHENYL-3,6-DIHYDRO-2H-PYRAN (B) + (+−)-4-METHYL-2-PHENYL-3,6-DIHYDRO-2H-PYRAN (C) | <−4 |  |  | <−4
10-UNDECENAL (A) + (9E)-9-UNDECENAL (B) + (9Z)-9-UNDECENAL (C) | <−4 |  | <−4 | 
CCCCC[C@H]1C(=O)CC[C@@H]1CC(=O)OC (racemic) [METHYL 2-((1RS,2RS)-3-OXO-2-PENTYLCYCLOPENTYL) ACETATE] |  | >−4 | >−4 | 
3,5,6-TRIMETHYL-3-CYCLOHEXENE-1-CARBALDEHYDE (A) + 2,4,6-TRIMETHYL-3-CYCLOHEXENE-1-CARBALDEHYDE (B) |  |  | >−4 | 
2-METHYLBUTYL SALICYLATE (A) + PENTYL SALICYLATE (B) |  | >−4 |  | 
(+)-(3S)-3-[(1R)-4-METHYL-3-CYCLOHEXEN-1-YL]BUTANAL (A) + (+)-(3R)-3-[(1R)-4-METHYL-3-CYCLOHEXEN-1-YL]BUTANAL |  |  |  | >−4
.ALPHA.-DIHYDROTERPINEOL (A) + .BETA.-DIHYDROTERPINEOL (B) | >−4 |  |  | 
(+−)-(3E)-3-METHYL-4-(2,6,6-TRIMETHYL-2-CYCLOHEXEN-1-YL)-3-BUTEN-2-ONE (A) + (+−)-(1E)-1-(2,6,6-TRIMETHYL-2-CYCLOHEXEN-1-YL)-1-PENTEN-3-ONE (B) |  |  | <−4 | 
3,7-DIMETHYL-2,6-NONADIENENITRILE (A) + 3,7-DIMETHYL-3,6-NONADIENENITRILE (B) |  |  | >−4 | 
TRICYCLO[5.2.1.0~2,6~]DEC-3-EN-8-YL ACETATE (A) + TRICYCLO[5.2.1.0~2,6~]DEC-4-EN-8-YL ACETATE (B) | >−4 | >−4 |  | 
c1ccc(Oc2ccccc2)cc1 [1,1′-OXYDIBENZENE] |  | >−4 |  | 

Reference: patent US20230022488A1, “Laundry Composition” (FIRMENICH SA, priority 2019, published 2023)
